Results as given in US20230066946A1, “1,5-DIPHENYLPYRAZOLYL-3-OXYALKYL ACIDS AND 1-PHENYL-5-THIENYLPYRAZOLYL-3-OXYALKYL ACIDS AND THE USE THEREOF FOR CONTROL OF UNWANTED PLANT GROWTH” (Bayer Aktiengesellschaft, priority 2019, published 2023).

Assays:
[1] = system: STEME; experiment: Post-emergence herbicidal action against STEME; assay type: in vivo, Stellaria media; details: visual rating about 3 weeks after treatment
Method in brief: (§1)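 Visual % damage (100% = dead, 0% = like untreated control) was scored about 3 weeks after foliar spraying of one-leaf-stage plants grown in sandy loam. Doses were 1280 or 320 g/ha, applied as aqueous WP/EC preparations with 0.5% additive in 600 litres per hectare water.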

[2] = system: STEME; experiment: Pre-emergence herbicidal action against STEME; assay type: in vivo, Stellaria media; details: scored visually after about 3 weeks vs untreated controls
Method in brief: (§2)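 Greenhouse pot test on sown, soil-covered weed seeds; spray of WP or EC formulation at 1280 or 320 g/ha onto covering soil. Effect rated visually after about 3 weeks (0% = like control, 100% = dead).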

[3] = system: PHBPU; experiment: Post-emergence herbicidal action against PHBPU; assay type: in vivo, Pharbitis purpurea; details: 320 g/ha, visual rating about 3 weeks after treatment
Protocol: (§3) [table] Seeds of mono- and dicotyledonous weed plants are placed in plastic pots in sandy loam soil (twin sowing with one species each of mono- or dicotyledonous weed plants per pot), covered with soil and cultivated in a greenhouse under controlled growth conditions. 2 to 3 weeks after sowing, the test plants are treated at the one-leaf stage. The compounds of the invention, formulated in the form of wettable powders (WP) or as emulsion concentrates (EC), are applied to the green parts of the plants as aqueous suspension or emulsion with addition of 0.5% additive at a water application rate equivalent to 600 litres per hectare. After the test plants have been kept in the greenhouse under optimum growth conditions for about 3 weeks, the activity of the preparations is rated visually in comparison to untreated controls. For example, 100% activity=the plants have died, 0% activity=like control plants. Tables 5.1-5.16 below show the effects of selected compounds of the general formula (I) according to Tables 1 to 3 on various harmful plants at an application rate corresponding to 1280 or 320 g/ha, which have been obtained by the aforementioned experimental method.

[4] = system: MATIN; experiment: Pre-emergence herbicidal action against MATIN; assay type: in vivo, Matricaria inodora; details: 1280 g/ha, scored visually after about 3 weeks vs untreated controls
Excerpt: (§4) Seeds of mono- and dicotyledonous weed plants are placed in plastic pots in sandy loam soil (doubly sown with one species each of mono- or dicotyledonous weed plants per pot) and covered with soil. The compounds of the invention, formulated in the form of wettable powders (WP) or as emulsion concentrates (EC), are then applied onto the surface of the covering soil as aqueous suspension or emulsion with addition of 0.5% additive at a water application rate equivalent to 600 litres per hectare. After the treatment, the pots are placed in a greenhouse and kept under good growth conditions for the trial plants. After about 3 weeks, the effect of the preparations is scored visually in comparison with untreated controls as percentages. For example, 100% activity=the plants have died, 0% activity=like control plants. [table] Tables 4.1-4.15 below show the effects of selected compounds of the general formula (I) according to Tables 1 to 3 on various harmful plants at an application rate corresponding to 1280 or 320 g/ha, which have been obtained by the aforementioned experimental method.

[5] = system: AMARE; experiment: Pre-emergence herbicidal action against AMARE; assay type: in vivo, Amaranthus retroflexus; details: scored visually after about 3 weeks vs untreated controls; for Pre-emergence action against AMARE in %: 1280 g/ha; for Pre-emergence action at 320 g/ha against AMARE in %: 100% = plants have died, 0% = like control plants
Method in brief: as §2

[6] = system: SETVI; experiment: Post-emergence herbicidal action against SETVI; assay type: in vivo, Setaria viridis; details: 1280 g/ha, post-emergence at one-leaf stage, rated visually after about 3 weeks vs untreated controls
Method in brief: as §1

[7] = system: ECHCG; experiment: Post-emergence herbicidal action against ECHCG; assay type: in vivo, Echinochloa crus-galli; details: 1280 g/ha, post-emergence at one-leaf stage, rated visually after about 3 weeks vs untreated controls
Method in brief: as §1

[8] = system: AMARE; experiment: Post-emergence herbicidal action against AMARE; assay type: in vivo, Amaranthus retroflexus; details: visual rating about 3 weeks after treatment
Method in brief: as §1

[9] = system: MATIN; experiment: Post-emergence herbicidal action against MATIN; assay type: in vivo, Matricaria inodora; details: visual rating about 3 weeks after treatment
Method in brief: as §1

[10] = system: VIOTR; experiment: Post-emergence herbicidal action against VIOTR; assay type: in vivo, Viola tricolor; details: 320 g/ha, visual rating about 3 weeks after treatment
Protocol: as §3

[11] = system: VERPE; experiment: Pre-emergence herbicidal action against VERPE; assay type: in vivo, Veronica persica; details: 320 g/ha, scored visually after about 3 weeks vs untreated controls
Excerpt: as §4

[12] = system: VERPE; experiment: Post-emergence herbicidal action against VERPE; assay type: in vivo, Veronica persica; details: 320 g/ha, visual rating about 3 weeks after treatment
Protocol: as §3

[13] = system: SETVI; experiment: Pre-emergence herbicidal action against SETVI; assay type: in vivo, Setaria viridis; details: 1280 g/ha, scored visually after about 3 weeks vs untreated controls
Method in brief: as §2

[14] = system: VIOTR; experiment: Pre-emergence herbicidal action against VIOTR; assay type: in vivo, Viola tricolor; details: 1280 g/ha, scored visually after about 3 weeks vs untreated controls
Excerpt: as §4

[15] = system: ECHCG; experiment: Pre-emergence herbicidal action against ECHCG; assay type: in vivo, Echinochloa crus-galli; details: scored visually after about 3 weeks vs untreated controls, 100% = plants have died, 0% = like control plants
Method in brief: as §2

[16] = system: harmful plants; experiment: Pre-emergence herbicidal action, summary of Tables 4.1-4.15; assay type: in vivo; details: result in words
Excerpt: as §4, with “plants.” for “plants. [table] Tables 4.1-4.15 below show the effects of selected compounds of the general formula (I) according to Tables 1 to 3 on various harmful plants at an application rate corresponding to 1280 or 320 g/ha, which have been obtained by the aforementioned experimental method.”
Tables 4.1-4.15 below show the effects of selected compounds of the general formula (I) according to Tables 1 to 3 on various harmful plants at an application rate corresponding to 1280 or 320 g/ha, which have been obtained by the aforementioned experimental method.
For example, compounds no. I-008, I-056, I-057, I-061, I-067, I-070 and I-072 applied by the pre-emergence method have very good action (80% to 100% herbicidal action) against harmful plants such as Alopecurus myosuroides, Amaranthus retroflexus, Matricaria inodora, Polygonum convolvulus, Setaria viridis and Stellaria media at an application rate of 1.28 kg of active substance or less per hectare.

[17] = system: POLCO; experiment: Pre-emergence herbicidal action against POLCO; assay type: in vivo, Polygonum convolvulus; details: 320 g/ha, scored visually after about 3 weeks vs untreated controls
Excerpt: as §4

SMILES	Post-emergence action against STEME in % ([1]; 1280 g/ha)	Pre-emergence action against STEME in % ([2]; 1280 g/ha)	Post-emergence action against PHBPU in % [3]	Pre-emergence action against MATIN in % [4]	Pre-emergence action against AMARE in % [5]	Post-emergence action against SETVI in % [6]	Post-emergence action against ECHCG in % [7]	Post-emergence action against AMARE in % ([8]; 1280 g/ha)	Post-emergence action against MATIN in % ([9]; 1280 g/ha)	Post-emergence action against VIOTR in % [10]	Pre-emergence action against SETVI in % [13]	Pre-emergence action at 1280 g/ha against ECHCG in % [15]	herbicidal efficacy against harmful plants in the case of pre-emergence treatment [16]	also measured
COC(=O)COc1nn(-c2cccc(F)c2)c(-c2ccccc2)c1Cl [I-016]	80%	80%	80%	90%	100%	80%	80%	80%	–	–	–	–	–	–
COC(=O)COc1nn(-c2cccc(F)c2)c(-c2ccccc2)c1C#N [I-023]	80%	–	80%	100%	90%	–	–	80%	80%	80%	–	–	–	Post-emergence action against STEME in % ([1]; 320 g/ha): 80%; Pre-emergence action against VERPE in % [11]: 90%; Pre-emergence action at 320 g/ha against AMARE in % [5]: 90%
COC(=O)COc1nn(-c2cccc(Cl)c2)c(-c2ccc(F)c(F)c2)c1Cl [I-026]	–	–	90%	90%	80%	–	–	80%	–	80%	–	–	–	–
COC(=O)COc1nn(-c2ccc(Cl)cc2)c(-c2cccc(F)c2)c1C#N [I-048]	–	–	–	80%	–	–	–	–	–	–	–	–	–	Post-emergence action against VERPE in % [12]: 80%
C#Cc1c(OCC(=O)OC)nn(-c2ccccc2F)c1-c1ccccc1 [I-063]	–	80%	–	–	80%	80%	–	–	80%	90%	100%	–	–	Pre-emergence action against VIOTR in % [14]: 100%
C#Cc1c(OCC(=O)OC)nn(-c2ccccc2)c1-c1ccc(F)cc1 [I-066]	–	–	90%	–	100%	–	–	–	80%	80%	–	–	–	Post-emergence action against MATIN in % ([9]; 320 g/ha): 80%; Pre-emergence action against VIOTR in % [14]: 90%
O=C(O)COc1nn(-c2ccc(F)cc2)c(-c2cccc(F)c2)c1[N+](=O)[O-] [I-121]	100%	100%	–	–	90%	–	–	–	90%	–	100%	100%	good herbicidal efficacy	–
CC(Oc1nn(-c2ccccc2)c(-c2ccc(F)cc2)c1Br)C(=O)O (centres unmarked) [I-138, 2-{[4-Bromo-5-(4-fluorophenyl)-1-phenyl-1H-pyrazol-3-yl]oxy}propanoic acid]	100%	100%	–	–	100%	–	–	–	–	–	100%	100%	good herbicidal efficacy	–
NCc1ccccc1.O=C(O)COc1nn(-c2cccc(F)c2)c(-c2ccccc2)c1I [II-13]	–	90%	–	–	100%	–	–	–	100%	–	–	–	good herbicidal efficacy	–
C=CCNC(=O)COc1nn(-c2ccccc2F)c(-c2ccccc2)c1Br [III-003]	–	100%	80%	–	100%	100%	100%	100%	–	–	100%	100%	good herbicidal efficacy	Pre-emergence action against STEME in % ([2]; 320 g/ha): 100%; Pre-emergence action against VERPE in % [11]: 100%; Post-emergence action against VERPE in % [12]: 80%; Pre-emergence action against POLCO in % [17]: 100%; Pre-emergence action at 320 g/ha against AMARE in % [5]: 100%; Post-emergence action against AMARE in % ([8]; 320 g/ha): 80%
C=CCNC(=O)COc1nn(-c2ccc(F)cc2)c(-c2cccc(F)c2)c1Cl [III-022]	100%	100%	–	–	90%	100%	90%	90%	–	–	100%	100%	good herbicidal efficacy	–
COC(=O)CNC(=O)COc1nn(-c2ccc(F)cc2)c(-c2cccc(F)c2)c1Cl [III-027]	90%	100%	–	–	100%	100%	90%	90%	100%	–	90%	100%	good herbicidal efficacy	–
C=CCNC(=O)COc1nn(-c2ccccc2F)c(-c2ccc(F)c(F)c2)c1Br [III-053]	100%	100%	–	–	90%	100%	100%	–	90%	–	100%	100%	good herbicidal efficacy	–
